One data set concerns DBTRG-50MG cells. In words: MTT cell survival assay, DBTRG-50MG cells. The class given is cell-based. To be noted: 250, 500, 1000 μM, 24 h post treatment, P<0.05 vs control. The protocol:
(§1) Cell seeding and treatment: Logarithmic phase of LN18 and DBTRG-50MG cells were prepared to cell suspensions with complete medium. Cells were seeded into a 96-well plate at a density of 100 μl per well, 3×10^4/ml. 12 h post seeding, full cell adherence was observed. To the wells was added YC-10 to a final concentration of YC-10 being 250, 500, and 1000 μM, with each concentration group having 5 repeats.
(§2) Reaction of MTT with succinate dehydrogenase: At 24th h of culturing, 10 μl (5 mg/ml) of MTT was added to each well, followed by 4 h incubation. At this time, granulate violet formazan crystalline can be observed in live cells by microscopy.
(§3) Formazan particle dissolution: Supernatant was carefully discharged. To the wells was added DMSO at 100 μl/well to dissolve the crystalline. The mixture was vibrated on a mini oscillator for 5 min and measured for optical density (OD value) at 570 nm for each well by enzyme-linked immunometric assay.
(§4) Each group of experiments was repeated 3 times.
(§5) Survival (%)=OD value in treatment group/OD value in control group*100%.
(§6) All data was presented as mean±SD. SPSS 13.0 statistics package software was used. One-Way ANOVA and t-test were used to analyze the data. Sigmaplot software was used to give FIG. 1.

The subject of data set [1] is cerebellar granule neurons. In words: Glutamate-induced damage of cerebellar granule neurons (FDA staining). The class given is cell-based. To be noted: glutamate 100 μM, glycine 10 μM, Mg2+-free Locke buffer; 30 min pre-incubation; FDA staining after 24 h. The protocol: Cerebellar granule neurons cultured in vitro for 8 days were grouped. Treatment groups received MK801 or YC-10 at various concentrations, followed by incubation for 30 min. Following that, model group and all treatment groups were replaced with Mg^2+-free Locke buffer, and added with glutamate (100 μM final concentration), Glycine (10 μM final concentration) and drugs at respective concentrations. Cells were incubated at 37° C. for 30 minutes, replaced with original medium, incubated for further 24 h, followed by FDA staining.

The test system of the next data set is LN18 cells. The data set is described as follows: MTT cell survival assay, LN18 cells. The class given is cell-based. To be noted: 250, 500, 1000 μM, 24 h post treatment, P<0.05 vs control. The protocol: as §1, §2, §3, §4, §5, §6
For orientation: Tetrazolium assays rely on reduction of a dye to a coloured formazan, in cell work by metabolically active cells.

The test system of data set [2] is retinal ganglion cell. In words: Eye high pressure and ischemia injury model, retinal ganglion cell death. It is filed as in vivo. To be noted: rats; 20 mg/kg via tail vein before modeling, 2 h, Day 2, Day 3; 130 mmHg, 1 h ischemia; pathological examination at Day 7. The protocol: 10% chloral hydrate was used to anesthetize rats. Eyes were subject to topical anesthesia. Perfusion apparatus was placed 176 cm above rats' eyeballs (resulting in 130 mmHg intra-ocular pressure). 30 G ½ syringe needle was carefully inserted into anterior chamber. The eyeballs became white and starting time of ischemia was recorded. 1 h post ischemia, the syringe needle was quickly withdrawn and eyes were cared by antibiotic eyedrops. Rats were raised back to cage. Drugs were administered 20 before modeling for solvent group and YC-10 group (20 mg/kg). At 2 h, Day 2 and Day 3 post modeling, rats were treated with YC-10 via tail vein. At Day 7 post modeling, eyeballs were obtained for pathological examination.

In a further data set the test system is KM mice. The data set is described as follows: Maximal tolerance dose test. It is filed as in vivo. The protocol:
YC-10 injections at concentration of 25 mg/mL were prepared with 40% hydroxypropyl cyclodextrin, and were injected through tail vein to 30 KM mice (half males and half females, weighted 18-22 g) at does of 0.1 mL/10 g.
The mice were continuously observed. All mice behaved and ate as usual, with bright coat color and fine fur. No abnormal secretions in mouth, eyes, nose, or ears were observed. Mice defecated normally. Mice weights were slighted increase. No mice died. Mice were sacrificed after 14 days, dissected and visual examined on important organs such as heart, liver, spleen, kidney, and gastrointestinal. No abnormal changes were observed.

For data set [3], the system named is cerebellar granule neurons. In words: Low potassium-induced death of cerebellar granule neurons (FDA staining). As to conditions: 50 μM, 5K (5 mM KCl) BME medium, 24 h. The class given is cell-based. The protocol: Cerebellar granule neurons were cultured in vitro for 8 days. Treatment groups received YC-10 at various concentrations and incubated for 30 min. Following that, model group and all treatment groups were replaced with 5K (i.e., 5 mM KCl) BME medium (25K BME for control group), and added with YC-10 at respective concentrations. Cells were incubated at 37° C. for 24 h, followed by FDA staining.

Data set [4] concerns retinal ganglion cell. The data set is described as follows: Optic nerve clamping injury model, retinal ganglion cell death. The class given is in vivo. As to conditions: rats; 20 mg/kg via tail vein 20 min before surgery, 2 h post operation, Day 2, Day 3; pathological examination at Day 7. The method, then: 10% chloral hydrate was used to anesthetize rats. YC-10 (20 mg/kg) or solvents were administered via tail vein 20 min before surgery. Eyes were subject to topical anesthesia. Conjunctiva was cut along limbus cornea with corneal scissors and intraocular microforceps. Lateral rectus was bluntly dissected to fully expose optic nerve. A cross action forceps was used to clamp the optic nerve for 5 seconds at 2 mm posterior to the eyeball, and then released. Antibiotic eye ointment was applied post operation to prevent infection. Drugs were administered at 2 h post operation, Day 2, and Day 3. Eyeballs were obtained for pathological examination at Day 7.

Turning to `C[C@@]12CCCC1C1CC(=O)[C@@]3(O)C[C@H](O)[C@@H](O)C[C@]3(C)C1CC2` (stereo partly drawn) [YC-10, 2β,3α,5α-trihydroxy-androst-6-one], the “cell survival rate (tumor cell killing)” value with DBTRG-50MG cells and with LN18 cells was “killed tumor cells in a dose-dependent manner” throughout. The “protection of cerebellar granule neurons from glutamate-induced damage” value in data set [1] is on record as “effective in preventing glutamate-induced excitotoxin damage of cerebellar granule neurons in a dose-dependent manner”. In the data set with retinal ganglion cell [2], the “protection of retinal ganglion cell from eye high pressure and ischemia-induced death” value is on record as “reduce or prevent from ischemia-induced death”. In addition, the “toxicity to mouse (behaviour, weight, organ examination)” value in the data set with KM mice (250 mg/kg tail vein injection in 40% hydroxypropyl cyclodextrin, observed 14 days) is “nontoxic”. For the same compound, the mortality result in the data set on KM mice (250 mg/kg tail vein injection, 14 days) was “No mice died”. The “protection of cerebellar granule neurons from low potassium-induced death” value in data set [3] was “could prevent neuron from low potassium-induced death”. The “protection of retinal ganglion cell from optic nerve clamping injury-induced death” value in the data set on retinal ganglion cell [4] is reported as “slow down or prevent from clamping injury-induced death”.

For `C[C@]12N[C@H](Cc3ccccc31)c1ccccc12` [MK801, reference compound], in data set [1], the “protection of cerebellar granule neurons from glutamate-induced damage” value is listed as “able to prevent cerebella granule neurons from glutamate-induced injury”.

For the origin of these results see patent US9428539B2, “2β,3α,5α-trihydroxy-androst-6-one and preparation methods and use thereof” (Guangzhou Cellprotek Pharmaceutical Co., Ltd., priority 2013, dated 2016).
